Data: patent US6399614B1, “1-(N-phenylaminoalkyl)piperazine derivatives substituted at position 2 of the phenyl ring” (Recordati S.A. Chemical and Pharmaceutical Company, priority 1997, dated 2002)
Like-named read-outs stand apart in the source and are kept apart here.

What was measured:
[1] = molecular target: T1, human 5-HT1A serotonergic receptor (Homo sapiens, UniProt P08908); assay: Radioreceptor binding, recombinant human 5-HT1A receptors ([3H]8-OH-DPAT, HeLa membranes); conditions: recombinant human receptor, [3H]8-OH-DPAT; Ki from IC50 by Cheng & Prusoff; read-out: Binding affinity for the 5-HT1A receptor, Ki
T1 construct: expressed in transfected cells; host or cells: HeLa
T1 sequence (P08908 1-422): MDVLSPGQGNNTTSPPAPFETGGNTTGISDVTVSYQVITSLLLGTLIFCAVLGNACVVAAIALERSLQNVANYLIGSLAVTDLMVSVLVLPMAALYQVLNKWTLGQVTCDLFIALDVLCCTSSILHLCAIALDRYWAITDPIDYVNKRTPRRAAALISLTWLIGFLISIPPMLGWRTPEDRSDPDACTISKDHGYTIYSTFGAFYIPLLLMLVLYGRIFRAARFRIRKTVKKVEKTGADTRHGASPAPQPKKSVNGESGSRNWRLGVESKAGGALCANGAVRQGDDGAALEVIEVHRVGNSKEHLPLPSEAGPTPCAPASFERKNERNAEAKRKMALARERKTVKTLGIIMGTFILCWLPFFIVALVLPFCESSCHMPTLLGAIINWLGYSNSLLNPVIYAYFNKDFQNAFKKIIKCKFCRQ
Outline: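 Membranes from HeLa cells stably transfected with human 5-HT1A clone G-21 incubated 30 min at 30° C with 0.2-1 nM [3H]8-OH-DPAT in 50 mM Tris HCl pH 7.4, 2.5 mM MgCl2, 10 μM pargiline; nonspecific binding with 10 μM 5-HT. Filtration assay; IC50 from curve fitting converted to Ki by Cheng-Prusoff.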

[2] = test system: urinary bladder; assay: Cystometric parameters (cystometrogram) in conscious rats; assay type: in vivo, rat; conditions: for BVC after treatment / MP after treatment: mean ± S.E.; for change in vivo at 0.3 mg/kg / change in vivo at 1 mg/kg: Rattus norvegicus, iv, 0.25 h, after vs before; for change in vivo at 0.3 mg/kg: i.v. 300 μg/kg; for change in vivo at 1 mg/kg: i.v. 1000 μg/kg
Procedure: Male Sprague Dawley rats (Crl: CDo BR) weighing 250-350 g were used. The animals were housed with free access to food and water and maintained on a forced 12 h alternating light-dark cycle at 22-24° C. for at least one week, except during performance of the experiment. To quantify urodynamic parameters in conscious rats, cystometrographic studies were performed using procedures previously described (Guarneri et al., Pharmacol. Res., 24:175, 1991). […] An approximately 10 mm long midline incision was made in the shaved and cleaned abdominal wall. The urinary bladder was gently freed from adhering tissues, emptied, and then cannulated, via an incision at the dome, with a polyethylene cannula (Portex PP30), which was permanently sutured with silk thread. The cannula was exteriorized through a subcutaneous tunnel in the retroscapular area, where it was connected with a plastic adapter to avoid the risk of removal by the animal. For intravenous (i.v.) injection of test compounds, a PE 50 polyethylene tubing filled with physiological saline was inserted into the jugular vein and exteriorized in the retroscapular area. The rats were utilized exclusively one day after implantation. On the day of the experiment, the rats were placed in Bollman's cages, after a stabilization period of 20 min, and the free tip of the bladder catheter was connected through a T-shaped tube to a pressure transducer (Bentley T 800/Marb P 82) and to a peristaltic pump (Gilson minipuls 2) for a continuous infusion, at the constant rate of 0.1 ml/min, of saline solution into the urinary bladder. The intraluminal pressure signal during infusion was continuously recorded on a polygraph (Battaglia Rangoni KO 380 with ADCl/T amplifier).
Two urodynamic parameters were evaluated: bladder volume capacity (BVC) and micturition pressure (MP). BVC (in ml) is defined as the minimum volume infused after which detrusor contraction (followed by micturition) occurs. MP (in mm Hg) is defined as the maximal intravesical pressure induced by the contraction of detrusor during micturition. Basal BVC and MP values were calculated as the means of the first two recorded cystometrograms. At this point in the assay, the infusion was interrupted and the test compounds were administered. Fifteen minutes after intravenous administration two additional cystometrograms were recorded in each animal and the mean values of the two cystometrographic parameters were calculated. The statistical significance of the differences in urodynamic parameter values was evaluated by Student's t test for paired data.

[3] = test system: rhythmic bladder voiding contractions; assay: Volume-induced rhythmic bladder voiding contractions in anaesthetized rats; assay type: in vivo, rat; conditions: Rattus norvegicus, intravenous; for ED (10 min disappearance of contractions): extrapolated dose inducing 10 min of disappearance of the contractions, anaesthetized rats, read-out: ED10 min; for ED50: extrapolated dose inducing a reduction of the number of contractions >30% in 50% of treated rats, read-out: ED50 (frequency)
Procedure: Female Sprague Dawley rats weighing 225-275 g (Crl: CDo BR, Charles River Italia) were used. The animals were housed with free access to food and water and were maintained on a forced 12 h alternating light-dark cycle at 22-24° C. for at least one week, except during the experiment. The activity on the rhythmic bladder voiding contractions was evaluated according to the method of Dray (J. Pharmacol. Methods, 13:157, 1985), with some modifications as in Guarneri (Pharmacol. Res., 27:173, 1993). Briefly, rats were anesthetized by subcutaneous injection of 1.25 g/kg (5 ml/kg) urethane, after which the urinary bladder was catheterized via the urethra using PE 50 polyethylene tubing filled with physiological saline. The catheter was tied in place with a ligature around the external urethral orifice and was connected with conventional pressure transducers (Statham P23 ID/P23 XL). […] The bladder was then filled via the recording catheter by incremental volumes of warm (37° C.) saline until reflex bladder voiding contractions occurred (usually 0.8-1.5 ml). For intravenous (i.v.) injection of bioactive compounds, PE 50 polyethylene tubing filled with physiological saline was inserted into the jugular vein. From the cystometrogram, the number of contractions recorded 15 min before (basal values) and after treatment, as well as the mean amplitude of these contractions (mean height of the peaks in mmHg) was evaluated.
Since most compounds produced an effect that was relatively rapid in onset and led to a complete cessation of bladder contractions, bioactivity was conveniently estimated by measuring the duration of bladder quiescence (i.e., the duration of time during which no contractions occurred). The number of animals tested showing a reduction in the number of contractions >30% of that observed in the basal period was also recorded.
Also computed in this manner were extrapolated doses which induced a reduction of the number of contractions of greater than 30% in 50% of treated rats (ED50, frequency) by the method of Bliss (Bliss C. I., Quart. J. Pharm. Pharmacol. 11, 192-216, 1938). After the suppressive effects of drug injection wore off, the height of the contractile peaks was compared with the height of the peaks previously recorded after the control intravenous administration of vehicle. The potency of the tested compounds (ED50 value: the extrapolated doses inducing a 30% reduction of amplitude of the contractions in 50% of treated rats) was evaluated on a quantal basis by the method of Bliss (Bliss C. I., Quart. J. Pharm. Pharmacol. 11, 192-216, 1938).

| Ki [1] [nM] | Structure (SMILES) | BVC after treatment ([2]; 15 min after i.v. 300 μg/kg) [mL] | MP after treatment ([2]; 15 min after i.v. 300 μg/kg) [mmHg] | BVC after treatment ([2]; 15 min after i.v. 1000 μg/kg) [mL] | MP after treatment ([2]; 15 min after i.v. 1000 μg/kg) [mmHg] | change in vivo at 0.3 mg/kg ([2]; read-out: BVC % of change) [%] | change in vivo at 0.3 mg/kg ([2]; read-out: MP % of change) [%] | change in vivo at 1 mg/kg ([2]; read-out: BVC % of change) [%] | change in vivo at 1 mg/kg ([2]; read-out: MP % of change) [%] | ED (10 min disappearance of contractions) [3] [mg/kg] | ED50 [3] [mg/kg] |
| --- | --- | --- | --- | --- | --- | --- | --- | --- | --- | --- | --- |
| 0.24 | O=C(C1CCCCC1)N(CCN1CCN(c2cccc3[nH]ccc23)CC1)c1ccccc1OC(F)(F)F [Example 51, 1-[N-cyclohexylcarbonyl-N-(2-trifluoromethoxyphenyl)-2-aminoethyl]-4-(4-indolyl)piperazine] | 0.84 ± 0.14 | 73.7 ± 6.1 | 1.08 ± 0.09 | 67.9 ± 5.6 | 27.7 | -7.9 | 36.5 | -13.3 | 0.276 | 0.2 |
| 2.13 | COc1cc(N)ccc1N1CCN(CCN(C(=O)C2CCCCC2)c2ccccc2OC(F)(F)F)CC1 [Example 56, 1-[N-cyclohexylcarbonyl-N-(2-trifluoromethoxyphenyl)-2-aminoethyl]-4-(4-amino-2-methoxyphenyl)piperazine] | – | – | – | – | – | – | – | – | 0.061 | 0.021 |
| 0.32 | O=C(C1CCCCC1)N(CCN1CCN(c2cccc3[nH]ccc23)CC1)c1ccccc1OCC(F)(F)F [Example 69, 1-[N-cyclohexylcarbonyl-N-[2-(2,2,2-trifluoroethoxyphenyl)]-2-aminoethyl]-4-(4-indolyl)piperazine] | – | – | – | – | – | – | – | – | 0.06 | 0.014 |
| 0.46 | COc1ccccc1N(CCN1CCN(c2cccc3[nH]ccc23)CC1)C(=O)C1CCCCC1 [Example 48, 1-[N-cyclohexylcarbonyl-N-(2-methoxyphenyl)-2-aminoethyl]-4-(4-indolyl)piperazine] | – | – | – | – | – | – | – | – | 0.04 | 0.014 |
